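GI50 marks 50% less growth. TGI marks complete inhibition of growth.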
Assays:
Assay in all cases: NCI anticancer screen, dose series, 384-well format
DU-145 prostate = test system: DU-145 prostate
M14 melanoma = test system: M14 melanoma
786-0 renal = test system: 786-0 renal
K-562 leukemia = test system: K-562 leukemia
HOP-62 NSCLC = test system: HOP-62 NSCLC
ACHN renal = test system: ACHN renal
A549 NSCLC = test system: A549 NSCLC
IGROV1 ovarian = test system: IGROV1 ovarian
SN12C renal = test system: SN12C renal
SNB-19 CNS = test system: SNB-19 CNS
RXF 393 renal = test system: RXF 393 renal
KM12 colon = test system: KM12 colon
UO-31 renal = test system: UO-31 renal
HCC-2998 colon = test system: HCC-2998 colon
NCI/ADR-RES ovarian = test system: NCI/ADR-RES ovarian
COLO 205 colon = test system: COLO 205 colon
MCF7 breast = test system: MCF7 breast
UACC-62 melanoma = test system: UACC-62 melanoma
NCI-H322M lung = test system: NCI-H322M lung
SK-MEL-5 melanoma = test system: SK-MEL-5 melanoma
HT29 colon = test system: HT29 colon
SW-620 colon = test system: SW-620 colon
MALME-3M melanoma = test system: MALME-3M melanoma
HCT-15 colon = test system: HCT-15 colon
HS 578T breast = test system: HS 578T breast
SF-295 CNS = test system: SF-295 CNS
MDA-MB-435 melanoma = test system: MDA-MB-435 melanoma
T-47D breast = test system: T-47D breast
EKVX NSCLC = test system: EKVX NSCLC
A498 renal = test system: A498 renal
SK-MEL-28 melanoma = test system: SK-MEL-28 melanoma
CCRF-CEM leukemia = test system: CCRF-CEM leukemia
NCI-H226 lung = test system: NCI-H226 lung
TK-10 renal = test system: TK-10 renal
CAKI-1 renal = test system: CAKI-1 renal
UACC-257 melanoma = test system: UACC-257 melanoma
HCT-116 colon = test system: HCT-116 colon
OVCAR-8 ovarian = test system: OVCAR-8 ovarian
PC-3 prostate = test system: PC-3 prostate
U251 glioblastoma = test system: U251 glioblastoma
OVCAR-3 ovarian = test system: OVCAR-3 ovarian
OVCAR-5 ovarian = test system: OVCAR-5 ovarian
HL-60(TB) leukemia = test system: HL-60(TB) leukemia
NCI-H522 lung = test system: NCI-H522 lung
SF-539 CNS = test system: SF-539 CNS
MDA-MB-468 breast = test system: MDA-MB-468 breast
SF-268 CNS = test system: SF-268 CNS
LOX IMVI melanoma = test system: LOX IMVI melanoma
NCI-H460 NSCLC = test system: NCI-H460 NSCLC
NCI-H23 lung = test system: NCI-H23 lung
MOLT-4 leukemia = test system: MOLT-4 leukemia
BT-549 breast = test system: BT-549 breast
OVCAR-4 ovarian = test system: OVCAR-4 ovarian
RPMI-8226 leukemia = test system: RPMI-8226 leukemia
SNB-75 CNS = test system: SNB-75 CNS
HOP-92 NSCLC = test system: HOP-92 NSCLC
SK-OV-3 ovarian = test system: SK-OV-3 ovarian
MDA-MB-231 breast = test system: MDA-MB-231 breast

N#Cc1c(Oc2ccc(F)c(NC(=O)Cc3cccc(C(F)(F)F)c3)c2)ccc2nc(NC(=O)C3CC3)sc12
GI50 (DU-145 prostate): 2770 nM | TGI (DU-145 prostate): > 100000 nM | GI50 (M14 melanoma): 12.5 nM | TGI (M14 melanoma): 117 nM | GI50 ([…]-0 renal): 913 nM | TGI (786-0 renal): 7150 nM | GI50 (K-562 leukemia): 114 nM | TGI (K-562 leukemia): 300 nM | GI50 (HOP-62 NSCLC): 1700 nM | TGI (HOP-62 NSCLC): > 100000 nM | GI50 (ACHN renal): 755 nM | TGI (ACHN renal): > 100000 nM | GI50 (A549 NSCLC): 1870 nM | TGI (A549 NSCLC): > 100000 nM | GI50 (IGROV1 ovarian): 434 nM | TGI (IGROV1 ovarian): 3110 nM | GI50 (SN12C renal): 461 nM | TGI (SN12C renal): 4710 nM | GI50 (SNB-19 CNS): 2630 nM | TGI (SNB-19 CNS): > 100000 nM | GI50 (RXF 393 renal): 159 nM | TGI (RXF 393 renal): 1600 nM | GI50 (KM12 colon): 1210 nM | TGI (KM12 colon): > 100000 nM | GI50 (UO-31 renal): 427 nM | TGI (UO-31 renal): 2220 nM | GI50 (HCC-2998 colon): 291 nM | TGI (HCC-2998 colon): 7010 nM | GI50 (NCI/ADR-RES ovarian): 1030 nM | TGI (NCI/ADR-RES ovarian): 4650 nM | GI50 (COLO 205 colon): 31.1 nM | TGI (COLO 205 colon): 2640 nM | GI50 (MCF7 breast): 717 nM | TGI (MCF7 breast): > 100000 nM | GI50 (UACC-62 melanoma): 15.2 nM | TGI (UACC-62 melanoma): 106 nM | GI50 (NCI-H322M lung): 1330 nM | TGI (NCI-H322M lung): > 100000 nM | GI50 (SK-MEL-5 melanoma): 17.1 nM | TGI (SK-MEL-5 melanoma): 1680 nM | GI50 (HT29 colon): 64.2 nM | TGI (HT29 colon): > 100000 nM | GI50 (SW-620 colon): 470 nM | TGI (SW-620 colon): 8510 nM | TGI (MALME-3M melanoma): 30.9 nM | GI50 (HCT-15 colon): 401 nM | TGI (HCT-15 colon): > 100000 nM | GI50 (HS 578T breast): 698 nM | TGI (HS 578T breast): 2520 nM | GI50 (SF-295 CNS): 516 nM | TGI (SF-295 CNS): > 100000 nM | GI50 (MDA-MB-435 melanoma): 62.2 nM | TGI (MDA-MB-435 melanoma): > 100000 nM | GI50 (T-47D breast): 1200 nM | TGI (T-47D breast): 6700 nM | GI50 (EKVX NSCLC): 3800 nM | TGI (EKVX NSCLC): 35600 nM | GI50 (A498 renal): 1700 nM | TGI (A498 renal): 5200 nM | GI50 (SK-MEL-28 melanoma): 16.7 nM | TGI (SK-MEL-28 melanoma): 68 nM | GI50 (CCRF-CEM leukemia): 263 nM | TGI (CCRF-CEM leukemia): 2970 nM | GI50 (NCI-H226 lung): 312 nM | TGI (NCI-H226 lung): 4190 nM | GI50 (TK-10 renal): 311 nM | TGI (TK-10 renal): 3520 nM | GI50 (CAKI-1 renal): 1140 nM | TGI (CAKI-1 renal): 8630 nM | GI50 (UACC-257 melanoma): 26.6 nM | TGI (UACC-257 melanoma): 138 nM | GI50 (HCT-116 colon): 158 nM | TGI (HCT-116 colon): 1850 nM | GI50 (OVCAR-8 ovarian): 746 nM | TGI (OVCAR-8 ovarian): > 100000 nM | GI50 (PC-3 prostate): 1420 nM | TGI (PC-3 prostate): > 100000 nM | GI50 (U251 glioblastoma): 486 nM | TGI (U251 glioblastoma): 8260 nM | GI50 (OVCAR-3 ovarian): 2410 nM | TGI (OVCAR-3 ovarian): 82100 nM | GI50 (OVCAR-5 ovarian): 677 nM | TGI (OVCAR-5 ovarian): 9850 nM | GI50 (HL-60(TB) leukemia): 80.5 nM | TGI (HL-60(TB) leukemia): 914 nM | GI50 (NCI-H522 lung): 484 nM | TGI (NCI-H522 lung): 5650 nM | GI50 (SF-539 CNS): 1070 nM | TGI (SF-539 CNS): 3060 nM | GI50 (MDA-MB-468 breast): 1060 nM | TGI (MDA-MB-468 breast): 6560 nM | GI50 (SF-268 CNS): 39.5 nM | TGI (SF-268 CNS): 263 nM | GI50 (LOX IMVI melanoma): 41.8 nM | TGI (LOX IMVI melanoma): 992 nM | GI50 (NCI-H460 NSCLC): 745 nM | TGI (NCI-H460 NSCLC): > 100000 nM | GI50 (NCI-H23 lung): 98.9 nM | TGI (NCI-H23 lung): 1260 nM | GI50 (MOLT-4 leukemia): 97.5 nM | TGI (MOLT-4 leukemia): 238 nM | GI50 (BT-549 breast): 1320 nM | TGI (BT-549 breast): > 100000 nM | GI50 (OVCAR-4 ovarian): 3640 nM | TGI (OVCAR-4 ovarian): > 100000 nM | GI50 (RPMI-8226 leukemia): 198 nM | TGI (RPMI-8226 leukemia): 847 nM | GI50 (SNB-75 CNS): 1300 nM | TGI (SNB-75 CNS): 4360 nM | GI50 (HOP-92 NSCLC): 783 nM | TGI (HOP-92 NSCLC): 2250 nM | GI50 (SK-OV-3 ovarian): 1790 nM | TGI (SK-OV-3 ovarian): > 100000 nM | GI50 (MDA-MB-231 breast): 78.3 nM | TGI (MDA-MB-231 breast): 2520 nM
